Results reported in patent publication US8481459B2, “Chemical inhibitors of ethylene biosynthesis” (Academia Sinica, priority 2010, dated 2013).

Tested on: gene expression in etiolated eto1-4 seedlings
Assay: Transcriptional profiling (ATH1 GeneChip microarray) of etiolated eto1-4 seedlings
Format: in vivo, Arabidopsis thaliana
Settings: ratio eto1-4 treated to eto1-4 (no treatment)
Method: For chemical treatments, seeds were sown on 0.5×MS agar medium supplemented with 10 μM chemicals (AVG, compounds 9393, 9370, and 7303) or DMSO (as control). Arabidopsis seeds were stratified in the dark at 4° C. for 4 days, then germinated in the dark for 3 days at 22° C. Approximately 2,000 etiolated seedlings of the wild type or eto1-4 were used to collect tissues for preparation of total RNA in each microarray experiment with Arabidopsis ATH1 GeneChip (Affymetrix). Extraction of RNA followed an established protocol (Chang, et al. (1993) Plant Mol. Biol. Rep. 11, 113-117). Total RNA (10 μg) was used to prepare biotinylated cRNA for hybridization to ATH1 GeneChip in the experiments disclosed herein. Experiments were repeated by 2 independent biological duplicates, and candidate genes present in both experiments were selected for further analysis. The MASS method was used for data analysis and normalization by all sample medium. Candidate genes were selected by the following criteria. First, genes with 1.5-fold differential expression between the wild type and eto1-4 were selected as the master gene pool, which was then used for comparison in treatments with AVG and individual exemplary compounds. Data were presented in hierarchical clustering and Venn diagram format. Agilent GeneSpring GX and Bioconductor software were used to analyze the expression profile data. Gene Ontology descriptions were generated by GeneSpring GX and further referred to the TAR GO database. Raw data are available in the GEO database (http://www.ncbi.nlm.nih.gov/geo) with Accession no. GSE20897.
The filtered and normalized expression data set from 22810 probes on the ATH1 Genechip was used for hierarchical clustering of gene expression profiles for comparison between AVG and the exemplary invention compounds in eto1-4. It was identified that 1,446 genes show at least 1.5-fold difference in expression between the WT and eto1-4 and used them as the master gene pool for clustering analysis (FIG. 7A). […] These genes likely contribute to the etiolated phenotype of eto1-4 by responding to elevated endogenous ethylene. To determine whether the exemplary compounds have specific r overlapping functions with AVG to suppress the eto1-4 phenotype, genes that are regulated by individual exemplary invention compounds and AVG for Venn diagram analysis were clustered (FIG. 7B). More than 63% of genes (356/561 for compound 9393; 389/561 for compound 9370; 399/561 for compound 7303; FIG. 7B) with expression associated with AVG were co-regulated by the exemplary invention compounds, which indicates an overlap function in suppression of the ethylene phenotype in eto1-4. […] Next genes co-regulated by all of the exemplary invention compounds and AVG were examined by performing a clustering analysis using the co-regulated genes identified in FIG. 7B: 356 (compound 9393 vs AVG), 389 (compound 9370 vs AVG) and 399 genes (compound 7303 vs AVG). It was uncovered that 276 genes were co-regulated by all of the exemplary invention compounds and AVG (FIG. 7C and Table 2). On the basis of GO descriptions generated by Gene Spring GX and TAIR database, the 276 genes were divided into subgroups related to their biological functions (Table 2). […] In addition, stress- and pathogenesis-related genes were among the co-regulated genes, possibly because ethylene is involved in both biotic and abiotic stresses.
Genes (1446 non-redundant loci) were selected by 1.5-fold differential expression between eto1-4 and WT as the master pool for analysis. These genes were used for comparison between chemical treatments by AVG and the exemplary invention compounds. The finalized 276 genes that are co-regulated by AVG and all of the exemplary invention compounds are shown. Locus ID also present in Nemhauser et al. (Nemhauser, et al. (2006) Cell 126, 467-475).

CC1(C)CC(=O)c2cnc(NC3CCCC3)nc2C1 [Compound 9393]
Signal Fold Change AT3G14850, unknown biological function: 0.29 | Signal Fold Change AT3G15890 protein kinase: 1.98 | Signal Fold Change AT3G16450 jacalin lectin protein: 2.09 | Signal Fold Change AT3G16470 jacalin lectin protein: 4.09 | Signal Fold Change AT3G16690, unknown biological function: 3.33 | Signal Fold Change AT3G17680, unknown biological function: 0.33 | Signal Fold Change AT3G20130 cytochrome P450: 1.72 | Signal Fold Change AT3G21770 peroxidase 30: 1.57 | Signal Fold Change AT3G22620 lipid transfer protein: 1.94 | Signal Fold Change AT3G23150 ethylene receptor, putative (ETR2): 0.15 | Signal Fold Change AT3G23800, unknown biological function: 0.46 | Signal Fold Change AT3G24670, unknown biological function: 0.32 | Signal Fold Change AT3G25710 bHLH protein: 2.27 | Signal Fold Change AT3G25730 AP2-containing transcription factor: 0.26 | Signal Fold Change AT3G25980 mitotic spindle checkpoint protein: 2.35 | Signal Fold Change AT3G27580 protein kinase: 0.48 | Signal Fold Change AT3G28290, unknown biological function: 0.29 | Signal Fold Change AT3G29250 short-chain dehydrogenase: 4.05 | Signal Fold Change AT3G30775 proline oxidase, mitochondrial: 2.13 | Signal Fold Change AT3G43270 pectinesterase protein: 0.26 | Signal Fold Change AT3G44820, response to light stimulus, phototropic-responsive NPH3 protein: 2.81 | Signal Fold Change AT3G44990 endo-xyloglucan transferase: 0.28 | Signal Fold Change AT3G45710 proton-dependent oligopeptide transport (POT) protein: 1.98 | Signal Fold Change AT3G46130 myb transcription factor (MYB48): 2.63 | Signal Fold Change AT3G46700 UDP-glucosyl transferase: 3.09 | Signal Fold Change AT3G47210, unknown biological function: 2.53 | Signal Fold Change AT3G47250, unknown biological function: 3.68 | Signal Fold Change AT3G49780 phytosulfokines 3 (PSK3): 4.97 | Signal Fold Change AT3G50660 steroid 22-alpha-hydroxylase: 4.32 | Signal Fold Change AT3G51410, unknown biological function: 0.32 | Signal Fold Change AT3G51970, unknown biological function: 2.49 | Signal Fold Change AT3G52180 protein tyrosine phosphatase: 0.32 | Signal Fold Change AT3G52920 expressed protein (defense response): 3.09 | Signal Fold Change AT3G53540, unknown biological function: 0.38 | Signal Fold Change AT3G56480, unknown biological function: 2.21 | Signal Fold Change AT3G58710 WRKY transcription factor: 2.14 | Signal Fold Change AT3G59370, unknown biological function: 2.91 | Signal Fold Change AT3G59710 short-chain dehydrogenase: 0.39 | Signal Fold Change AT3G59900, unknown biological function: 0.43 | Signal Fold Change AT3G60520, unknown biological function: 0.27 | Signal Fold Change AT3G61160 shaggy-related protein kinase beta/ASK-beta (ASK2): 3.26 | Signal Fold Change AT4G00730 anthocyaninless2: 0.55 | Signal Fold Change AT4G01410, unknown biological function: 0.40 | Signal Fold Change AT4G03140 short-chain dehydrogenase: 0.41 | Signal Fold Change AT4G08300, unknown biological function: 3.06 | Signal Fold Change AT4G09570 calcium-dependent protein kinase: 0.36 | Signal Fold Change AT4G10910, unknown biological function: 4.86 | Signal Fold Change AT4G11190 disease resistance-responsive protein: 5.56 | Signal Fold Change AT4G11280 ACC synthase 6: 1.87 | Signal Fold Change AT4G11310 cysteine proteinase: 8.01 | Signal Fold Change AT4G12080, unknown biological function: 1.88 | Signal Fold Change AT4G12410 auxin-responsive protein: 2.76 | Signal Fold Change AT4G12480 lipid transfer protein: 0.20 | Signal Fold Change AT4G13210, unknown biological function: 0.29 | Signal Fold Change AT4G15550 UDP-glucose:indole-3-acetate beta-D-glucosyltransferase: 0.36 | Signal Fold Change AT4G15920, unknown biological function: 13.52 | Signal Fold Change AT4G17220 expressed protein (cytoskeleton organization and biogenesis): 2.49 | Signal Fold Change AT4G18340 glycosyl hydrolase: 2.57 | Signal Fold Change AT4G23410 senescence-associated protein: 1.97 | Signal Fold Change AT4G25780, unknown biological function: 9.02 | Signal Fold Change AT4G26010 peroxidase: 0.45 | Signal Fold Change AT4G28085, unknown biological function: 2.86 | Signal Fold Change AT4G31000, unknown biological function: 0.55 | Signal Fold Change AT4G32920, unknown biological function: 2.39 | Signal Fold Change AT4G34560, unknown biological function: 2.00 | Signal Fold Change AT4G34760 auxin-responsive protein: 0.20 | Signal Fold Change AT4G35060 copper chaperone: 3.14 | Signal Fold Change AT4G35150, unknown biological function: 0.32 | Signal Fold Change AT4G36520, unknown biological function: 2.71 | Signal Fold Change AT4G37220 stress-responsive protein: 7.29 | Signal Fold Change AT4G38690, signal transduction, 1-phosphatidylinositol: 2.55 | Signal Fold Change AT4G39210 ADP-glucose pyrophosphorylase: 0.44 | Signal Fold Change AT4G39800 inositol-3-phosphate synthase isozyme 1: 2.16 | Signal Fold Change AT4G39840, unknown biological function: 0.37 | Signal Fold Change AT5G01210, unknown biological function: 0.33 | Signal Fold Change AT5G01300, unknown biological function: 1.40 | Signal Fold Change AT5G02260, cell wall organization and biogenesis, expansin (EXP9): 0.16 | Signal Fold Change AT5G02540 short-chain dehydrogenase: 0.17 | Signal Fold Change AT5G03160 DNAJ heat shock N-terminal domain-containing protein: 1.90 | Signal Fold Change AT5G04080, unknown biological function: 2.48 | Signal Fold Change AT5G05180, unknown biological function: 1.79 | Signal Fold Change AT5G06200, unknown biological function: 1.94 | Signal Fold Change AT5G08240, unknown biological function: 1.79 | Signal Fold Change AT5G08260 serine carboxypeptidase S10 protein: 0.50 | Signal Fold Change AT5G08370 alpha-galactosidase: 2.77 | Signal Fold Change AT5G09980 expressed protein (defense response): 0.35 | Signal Fold Change AT5G10720 sensory transduction histidine kinase: 0.48 | Signal Fold Change AT5G11540, unknown biological function: 5.32 | Signal Fold Change AT5G12170, response to cadmium ion, expressed protein: 0.36 | Signal Fold Change AT5G13870 endo-xyloglucan transferase: 0.27 | Signal Fold Change AT5G13910 AP2/EREBP-like transcription factor: 0.46 | Signal Fold Change AT5G14780 formate dehydrogenase: 0.44 | Signal Fold Change AT5G14920 gibberellin-regulated protein: 0.35 | Signal Fold Change AT5G15290, unknown biological function: 2.43 | Signal Fold Change AT5G15530 biotin carboxyl carrier protein 2: 0.54 | Signal Fold Change AT5G15830 bZIP transcription factor protein: 3.94 | Signal Fold Change AT5G18470, unknown biological function: 0.13 | Signal Fold Change AT5G18670 beta-amylase: 0.50 | Signal Fold Change AT5G18860, unknown biological function: 2.02 | Signal Fold Change AT5G18970, unknown biological function: 2.49 | Signal Fold Change AT5G19890 peroxidase: 0.13 | Signal Fold Change AT5G19930, unknown biological function: 1.64 | Signal Fold Change AT5G20410 monogalactosyldiacylglycerol synthase: 2.77 | Signal Fold Change AT5G22310, unknown biological function: 0.37 | Signal Fold Change AT5G22860 serine carboxypeptidase S28 protein: 2.63 | Signal Fold Change AT5G23750, unknown biological function: 3.60 | Signal Fold Change AT5G24870, unknown biological function: 2.16 | Signal Fold Change AT5G25140 cytochrome P450: 4.21 | Signal Fold Change AT5G25160 zinc finger (C2H2 type) protein: 2.60 | Signal Fold Change AT5G25190 ethylene-responsive element-binding protein: 0.32 | Signal Fold Change AT5G34940, unknown biological function: 0.49 | Signal Fold Change AT5G37300, unknown biological function: 3.86 | Signal Fold Change AT5G38930, unknown biological function: 0.33 | Signal Fold Change AT5G39860 bHLH protein: 2.39 | Signal Fold Change AT5G41900 hydrolase: 2.67 | Signal Fold Change AT5G44410, unknown biological function: 3.37 | Signal Fold Change AT5G44580, unknown biological function: 0.22 | Signal Fold Change AT5G46890 lipid transfer protein: 3.64 | Signal Fold Change AT5G47240, unknown biological function: 3.96 | Signal Fold Change AT5G47330 palmitoyl protein thioesterase protein: 2.52 | Signal Fold Change AT5G47450 major intrinsic protein: 2.24 | Signal Fold Change AT5G47950, unknown biological function: 1.93 | Signal Fold Change AT5G48490 lipid transfer protein: 9.12 | Signal Fold Change AT5G48900, unknown biological function: 0.55 | Signal Fold Change AT5G49900, unknown biological function: 2.24 | Signal Fold Change AT5G50720 ABA-responsive protein (HVA22e): 2.52 | Signal Fold Change AT5G52120 SKP1 interacting partner 3 protein: 5.39 | Signal Fold Change AT5G53190, unknown biological function: 4.35 | Signal Fold Change AT5G53830, unknown biological function: 0.40 | Signal Fold Change AT5G56320, cell wall organization and biogenesis, expansin (EXP14): 3.15 | Signal Fold Change AT5G58660, unknown biological function: 0.34 | Signal Fold Change AT5G59540 oxidoreductase: 0.44 | Signal Fold Change AT5G63450 cytochrome P450: 6.43 | Signal Fold Change AT5G63650 serine/threonine protein kinase: 0.42 | Signal Fold Change AT5G65970 seven transmembrane MLO protein: 2.60 | Signal Fold Change AT5G66310, microtubule-based movement, kinesin motor protein: 0.48 | Signal Fold Change AT5G66400 dehydrin (RAB18): 1.09 | Signal Fold Change AT5G66440, unknown biological function: 0.30 | Signal Fold Change AT5G66460 (1-4)-beta-mannan endohydrolase: 0.51 | Signal Fold Change AT5G66780, unknown biological function: 0.78
